According to patent US20240376076A1, “INHIBITORS TARGETING UBIQUITIN SPECIFIC PROTEASE 7 (USP7)” (Dana-Farber Cancer Institute, Inc., priority 2021, published 2024):
Structures can show the parent of a compound that is named as a salt.

Target: T1, USP7, Active human recombinant protein (Homo sapiens, UniProt Q93009)
T1 construct: purchased CP Lot; 20200225001
Test: USP7 assay (Ubiquitin-Rhodamine 110 enzymatic assay)
Type: biochemical
Conditions: read-out: IC50
Experimental: Enzymatic Assays with Exemplary USP7 Irreversible Inhibitors
ND refers to not disclosed.
USP7, Active human recombinant protein (CP, Lot. 20200225001), Ubiquitin-Rhodamine 110 (Rh110) (BostonBiochem, Cat. No. U-555), DMSO (Sigma, Cat. N34869), DTT (Sangon Biotech, Cat. No. A620058-0005), […] Tris pH 8.0 (Sigma, Cat. No. T2694-1L), Tween-20 (Sigma, Cat. No. P2287-100ML), EDTA (Invitrogen, Cat. No. 15575020, BSA (Sigma, Cat. No. B2064-100G), 384-well assay plate (Corning, Cat. No. 3573), Echo Qualified 384-Well Polypropylene Microplate 2.0, Clear, Flat Bottom (LABCYTE, Cat. No. 001-14555).
Dilute the compounds to 400× of the final desired highest inhibitor concentration in reaction by 100% DMSO. For all compounds, transfer the compounds to one well in a 384-well Echo plate and serially dilute the compound by 3-fold dilution of 100% DMSO in the next well and so forth for a total of 10 concentrations by Precision. Add 30 μL of 100% DMSO to two empty wells for no compound control and no enzyme control in the same 384-well Echo plate. Make the plate as a source plate.
For USP7 assay, transfer 50 nL of each well from the source plate to a 384-well assay plate (OptiPlate TM-384 F black assay plates) by Echo 550 Liquid Handler.
Added appropriate amount of USP7 in 1× assay Buffer to prepare 2× enzyme solution (USP7 final concentration: 0.05 nM). Added appropriate amount of Ubiquitin-Rhodamine 110 in 1× assay Buffer to prepare 2× substrate solution (Ubiquitin-Rhodamine 110 final concentration: 190 nM). Added 10 μL of 2× enzyme solution to each reaction well of the 384-well assay plate, except for control wells without enzyme (add 10 μL of 1× Assay Buffer instead as for low control). […] Transferred 2× substrate solution to the assay plate. Added 10 μL of 2× substrate solution to each well of the 384-well assay plate to start reaction. Centrifuged at 1000 rpm for 1 min. Read the plate kinetically on SpectraMax Paradigm for 20 min with excitation at 485 nm and emission at 535 nm. Copied raw data (slope) from Reader to obtain inhibition values in Excel using equation (1): […]
Max signal was obtained from the action of Enzyme and Substrate. Min signal was obtained from the Substrate only. To fit the data in XLFit excel add-in version 5.4.0.8 to obtain IC50 values used equation (2): […]
Y is % inhibition and X is compound concentration.

T1 sequence (Q93009 whole entry): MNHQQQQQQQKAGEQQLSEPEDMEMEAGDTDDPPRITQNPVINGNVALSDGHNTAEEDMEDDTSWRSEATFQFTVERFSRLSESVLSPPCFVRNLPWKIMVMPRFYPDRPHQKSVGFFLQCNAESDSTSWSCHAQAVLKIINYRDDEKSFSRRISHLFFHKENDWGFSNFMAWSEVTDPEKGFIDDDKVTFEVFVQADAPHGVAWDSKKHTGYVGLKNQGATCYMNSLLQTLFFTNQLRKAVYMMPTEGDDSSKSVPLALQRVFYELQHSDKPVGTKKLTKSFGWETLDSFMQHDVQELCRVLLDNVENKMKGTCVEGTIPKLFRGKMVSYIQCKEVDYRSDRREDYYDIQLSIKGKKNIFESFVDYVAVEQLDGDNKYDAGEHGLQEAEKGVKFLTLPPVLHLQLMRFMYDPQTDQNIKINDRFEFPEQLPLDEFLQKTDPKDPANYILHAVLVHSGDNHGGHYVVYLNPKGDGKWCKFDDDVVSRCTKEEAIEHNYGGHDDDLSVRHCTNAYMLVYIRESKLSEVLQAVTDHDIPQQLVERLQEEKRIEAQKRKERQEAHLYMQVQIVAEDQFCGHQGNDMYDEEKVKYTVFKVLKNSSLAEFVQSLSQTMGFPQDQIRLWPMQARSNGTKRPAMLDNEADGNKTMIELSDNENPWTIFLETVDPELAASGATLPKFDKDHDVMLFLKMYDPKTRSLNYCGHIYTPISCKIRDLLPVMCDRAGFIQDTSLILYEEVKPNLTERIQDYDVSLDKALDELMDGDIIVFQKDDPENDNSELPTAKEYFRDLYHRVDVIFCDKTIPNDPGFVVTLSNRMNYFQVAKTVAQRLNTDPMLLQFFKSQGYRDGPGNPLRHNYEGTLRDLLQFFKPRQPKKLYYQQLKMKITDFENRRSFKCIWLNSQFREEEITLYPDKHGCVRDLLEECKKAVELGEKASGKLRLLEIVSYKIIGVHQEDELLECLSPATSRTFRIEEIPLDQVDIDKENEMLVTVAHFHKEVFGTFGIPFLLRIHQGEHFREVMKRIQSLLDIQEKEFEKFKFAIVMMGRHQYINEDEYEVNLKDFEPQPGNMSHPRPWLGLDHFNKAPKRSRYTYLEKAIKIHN

| SMILES | IC50 [µM] |
| --- | --- |
| CN1CCN(CCC(=O)Nc2ccc3c(=O)n(CC4(O)CCN(C(=O)C(CCCNC(=O)c5ccc6c(Cl)c7c(nc6c5)CCCC7)Cc5ccccc5)CC4)cnc3c2)CC1 (stereo not drawn) | < 0.02 |
| CN1CCN(CCC(=O)Nc2ccc3c(=O)n(CC4(O)CCN(C(=O)[C@H](CCCNC(=O)c5ccc6c(Cl)c7c(nc6c5)CCCC7)Cc5ccccc5)CC4)cnc3c2)CC1 | 0.1 to 1 |
| O=C(NCCC1CC[C@@H](C(=O)N2CCC(O)(Cn3cnc4cc(-c5ncc(CN6CCNCC6)o5)ccc4c3=O)CC2)[C@H](c2ccccc2)C1)c1ccc2c(Cl)ccnc2c1 (stereo partly drawn) | 0.02 to 0.1 |
| C=CC(=O)Nc1ccc(C#N)cc1N1CCC(C(=O)N2CCC(O)(Cn3cnc4cc(NC(=O)CCN5CCN(C)CC5)ccc4c3=O)CC2)C(c2ccccc2)C1 (stereo not drawn) | > 1 |
| Nc1cccc(-n2ncc3c(=O)n(CC4(O)CCN(C(=O)C(CCCNC(=O)c5ccc6c(Cl)ccnc6c5)Cc5ccccc5)CC4)cnc32)c1 (stereo not drawn) [Compound 8, N-(5-(4-((1-(3-aminophenyl)-4-oxo-1H-pyrazolo[3,4-d]pyrimidin-5(4H)-yl)methyl)-4-hydroxypiperidin-1-yl)-4-benzyl-5-oxopentyl)-4-chloroquinoline-7-carboxamide] | 0.02 to 0.1 |
| O=C(NCCC[C@H](Cc1ccccc1)C(=O)N1CCC(O)(Cn2cnc(NCCN3CCCC3)cc2=O)CC1)c1ccc2c(Cl)ccnc2c1 [Compound 12, N-(4-benzyl-5-(4-hydroxy-4-((6-oxo-4-(2-(pyrrolidin-1-yl)ethylamino)pyrimidin-1(6H)-yl)methyl)piperidin-1-yl)-5-oxopentyl)-4-chloroquinoline-7-carboxamide] | > 1 |
| CN1CCN(CCC(=O)Nc2ccc3c(=O)n(CC4(O)CCN(C(=O)C(CCCNC(=O)c5ccc6c(Cl)cc(-c7cccnc7)nc6c5)Cc5ccccc5)CC4)cnc3c2)CC1 (stereo not drawn) [Compound 14, N-(4-benzyl-5-(4-hydroxy-4-((7-(3-(4-methylpiperazin-1-yl)propanamido)-4-oxoquinazolin-3(4H)-yl)methyl)piperidin-1-yl)-5-oxopentyl)-4-chloro-2-(pyridin-3-yl)quinoline-7-carboxamide] | 0.1 to 1 |
| CN1CCN(CCC(=O)Nc2ccc3c(=O)n(CC4(O)CCN(C(=O)C(CCCNC(=O)c5ccc6c(Cl)cc(-c7cccc(CN)c7)nc6c5)Cc5ccccc5)CC4)cnc3c2)CC1 (stereo not drawn) [Compound 17, 2-(3-(aminomethyl)phenyl)-N-(4-benzyl-5-(4-hydroxy-4-((7-(3-(4-methylpiperazin-1-yl)propanamido)-4-oxoquinazolin-3(4H)-yl)methyl)piperidin-1-yl)-5-oxopentyl)-4-chloroquinoline-7-carboxamide hydrochloride] | 0.02 to 0.1 |
| CN1CCN(CCC(=O)Nc2ccc3c(=O)n(CC4(O)CCN(C(=O)[C@H](CCCNC(=O)c5ccc6c(Cl)cc(-c7cnn(CC(F)(F)F)c7)nc6c5)Cc5ccccc5)CC4)cnc3c2)CC1 [Compound 19] | > 1 |
| C=CS(=O)(=O)NCc1cccc(C(=O)N2CCC(O)(Cn3cnc4cc(NC(=O)CCN5CCN(C)CC5)ccc4c3=O)CC2)c1 [Compound 26, N-(3-((4-hydroxy-1-(3-(vinylsulfonamidomethyl)benzoyl)piperidin-4-yl)methyl)-4-oxo-3,4-dihydroquinazolin-7-yl)-3-(4-methylpiperazin-1-yl)propanamide] | > 1 |
| CN1CCN(CCn2ncc3ncn(CC4(O)CCN(C(=O)C(CCCNC(=O)c5ccc6c(Cl)ccnc6c5)Cc5ccccc5)CC4)c(=O)c32)CC1 (stereo not drawn) [Compound 28] | > 1 |
| CN(C)CC(=O)Nc1ccc2c(=O)n(CC3(O)CCN(C(=O)[C@H]4CC[C@H](NC(=O)c5ccc6c(Cl)ccnc6c5)CC4)CC3)cnc2c1 [Compound 35, 4-chloro-N-((1R,4R)-4-(4-((7-(2-(dimethylamino)acetamido)-4-oxoquinazolin-3(4H)-yl)methyl)-4-hydroxypiperidine-1-carbonyl)cyclohexyl)quinoline-7-carboxamide] | > 1 |
| CN1CCN(CCOc2ccc3ncn(CC4(O)CCN(C(=O)C(CCCNC(=O)c5ccc6c(Cl)ccnc6c5)Cc5ccccc5)CC4)c(=O)c3c2)CC1 (stereo not drawn) [Compound 38, N-(4-benzyl-5-(4-hydroxy-4-((6-(2-(4-methylpiperazin-1-yl)ethoxy)-4-oxoquinazolin-3(4H)-yl)methyl)piperidin-1-yl)-5-oxopentyl)-4-chloroquinoline-7-carboxamide] | > 1 |

Next, values leading:

| IC50 [µM] | SMILES |
| --- | --- |
| < 0.02 | CN(C)CCCOc1ccc2c(=O)n(CC3(O)CCN(C(=O)[C@@H](CCCNC(=O)c4ccc5c(Cl)c(CO)cnc5c4)Cc4ccccc4)CC3)cnc2c1 |
| 0.1 to 1 | CN(C)CCCOc1ccc2c(=O)n(CC3(O)CCN(C(=O)C(Cn4ccc(F)n4)N(C)CCNC(=O)c4ccc5c(Cl)cc(C6CC6)nc5c4)CC3)cnc2c1 (stereo not drawn) |
| 0.1 to 1 | CN(C)CCCOc1ccc2c(=O)n(CC3(O)CCN(C(=O)C(Cc4ccccc4)N(C)CCNC(=O)c4ccc5c(Cl)cc(C6CC6)nc5c4)CC3)cnc2c1 (stereo not drawn) |
| > 1 | CN1CCN(CCC(=O)Nc2ccc3c(=O)n(CC4(O)CCN(C(=O)[C@H](CCCNC(=O)c5ccc6c(Cl)cc(-c7ccc(F)cc7)nc6c5)Cc5ccccc5)CC4)cnc3c2)CC1 [Compound 4, (R)—N-(4-benzyl-5-(4-hydroxy-4-((7-(3-(4-methylpiperazin-1-yl)propanamido)-4-oxoquinazolin-3(4H)-yl)methyl)piperidin-1-yl)-5-oxopentyl)-4-chloro-2-(4-fluorophenyl)quinoline-7-carboxamide] |
| 0.02 to 0.1 | N[C@@H](c1ccc(-n2ncc3c(=O)n(CC4(O)CCN(C(=O)C(CCCNC(=O)c5ccc6c(Cl)ccnc6c5)Cc5ccccc5)CC4)cnc32)cc1)C(F)(F)F (stereo partly drawn) [Compound 9, N-(5-(4-((1-(4-(1-amino-2,2,2-trifluoroethyl)phenyl)-4-oxo-1H-pyrazolo[3,4-d]pyrimidin-5(4H)-yl)methyl)-4-hydroxypiperidin-1-yl)-4-benzyl-5-oxopentyl)-4-chloroquinoline-7-carboxamide] |
| 0.1 to 1 | CN1CCN(CCC(=O)Nc2ccc3c(=O)n(CC4(O)CCN(C(=O)C(CCCNC(=O)c5ccc6c(Cl)cc(-c7cccc(C(F)(F)F)c7)nc6c5)Cc5ccccc5)CC4)cnc3c2)CC1 (stereo not drawn) [Compound 15, N-(4-benzyl-5-(4-hydroxy-4-((7-(3-(4-methylpiperazin-1-yl)propanamido)-4-oxoquinazolin-3(4H)-yl)methyl)piperidin-1-yl)-5-oxopentyl)-4-chloro-2-(3-(trifluoromethyl)phenyl)quinoline-7-carboxamide] |
| 0.1 to 1 | CN1CCN(CCC(=O)Nc2ccc3c(=O)n(CC4(O)CCN(C(=O)C(CCCNC(=O)c5ccc6c(Cl)cc(-c7cccc(C#N)c7)nc6c5)Cc5ccccc5)CC4)cnc3c2)CC1 (stereo not drawn) [Compound 16, N-(4-benzyl-5-(4-hydroxy-4-((7-(3-(4-methylpiperazin-1-yl)propanamido)-4-oxoquinazolin-3(4H)-yl)methyl)piperidin-1-yl)-5-oxopentyl)-4-chloro-2-(3-cyanophenyl)quinoline-7-carboxamide] |
| > 1 | CCS(=O)(=O)Nc1ccccc1-c1ccc(C(=O)N2CCC(O)(Cn3cnc4cc(NC(=O)CCN5CCN(C)CC5)ccc4c3=O)CC2)cc1 [Compound 25] |
| > 1 | CN(C)CC(=O)Nc1ccc2c(=O)n(CC3(O)CCN(C(=O)[C@H]4CC[C@@H](NC(=O)c5ccc6c(Cl)ccnc6c5)CC4)CC3)cnc2c1 [Compound 34, 4-chloro-N-((1s,4s)-4-(4-((7-(2-(dimethylamino)acetamido)-4-oxoquinazolin-3(4H)-yl)methyl)-4-hydroxypiperidine-1-carbonyl)cyclohexyl)quinoline-7-carboxamide] |
| > 1 | CN(C)CC(=O)Nc1ccc2c(=O)n(CC3(O)CCN(C(=O)C4CCCC(NC(=O)c5ccc6c(Cl)ccnc6c5)C4)CC3)cnc2c1 (stereo not drawn) [Compound 36, 4-chloro-N-(3-(4-((7-(2-(dimethylamino)acetamido)-4-oxoquinazolin-3(4H)-yl)methyl)-4-hydroxypiperidine-1-carbonyl)cyclohexyl)quinoline-7-carboxamide] |
| > 1 | Cn1c(=O)n(CC2(O)CCN(C(=O)C(CCCNC(=O)c3ccc4c(Cl)ccnc4c3)Cc3ccccc3)CC2)c2cnccc21 (stereo not drawn) [Compound 37, N-(4-benzyl-5-(4-hydroxy-4-((1-methyl-2-oxo-1H-imidazo[4,5-c]pyridin-3(2H)-yl)methyl)piperidin-1-yl)-5-oxopentyl)-4-chloroquinoline-7-carboxamide] |
